Results published in patent US5061723A, “Non-teratogenic vitamin A preparation for women of child-bearing age” (Iowa State University Research Foundation, Inc., priority 1989, dated 1991).

Legend:
[1] = test system: pregnant rats (fetuses); assay: Teratogenicity test in pregnant rats (single oral dose on day 8.5 of gestation; fetuses examined day 19-19.5); format: in vivo, rat
Protocol: All-trans retinoic acid glucuronide was tested for teratogenicity in pregnant rats.
The retinoic acid glucuronide dissolved in vegetable oil. Equivalent amount of all-trans retinoic acid was also dissolved in the vegetable oil. Groups of pregnant rats were dosed orally with either retinoid glucuronide or retinoic acid on day 8.5 of gestation. […] The rats were killed on day 19.5 of a 21 day gestational period, and the fetuses were examined for viability, growth, and developmental abnormalities.
Rats that became pregnant during the same night were selected for the study. The rats were divided into 3 groups. Rats in Group 1 received orally 55 mg of the all-trans retinoic acid glucuronide (equivalent to 35 mg of retinoic acid) or a very large dose of 108 mg of the glucuronide in peanut oil. Rats in Group 2 received orally 35 mg of all-trans retinoic acid in peanut oil. Rats in Group 3 received no retinoid and served as control. The rats were then allowed to grow normally and on day 19, they were killed and fetuses were examined.

[2] = cited from earlier work
[3] = Solubility in water; format: physicochemical; settings: all-trans retinoyl β-glucuronide
[4] = test system: β-glucuronidase; assay: Hydrolysis by β-glucuronidase (from E. coli); format: biochemical; settings: phosphate buffer pH 6.8, 0.5-2 hrs
Protocol: An analytically pure sample of retinoyl β-glucuronide was obtained by HPLC of the above preparation on a Whatman ODS-3 column (M9, 50 cm) using methanol/water (7:3) containing 10 mM ammonium acetate at a flow rate of 3 ml/min. Retinoyl β-glucuronide (tR =49.7 min) separated from traces of isomers or anomers (tR =46.4 min). The eluate carrying retinoyl β-glucuronide was diluted with water and made just acidic with 0.1N HCl. The product was extracted with ethyl acetate. The extract was washed with water, dried over anhydrous sodium sulfate, and then evaporated to dryness. The residue was dissolved in a small volume of diethyl ether and all-trans retinoyl β-glucuronide was precipitated with hexane. The solid was separated and dried. All-trans retinoyl β-glucuronide:m.p. 142°-143° C. (darkens at 125° C.); UVmax 360 nm (E1cm =1065) in methanol and 365 nm in water. The ^1 H-NMR, IR and Mass spectra and C, H analysis results were consistent with the structure.

[5] = test system: HL-60 cells; settings: cited from earlier work; for activity in the HL-60 systems assay: compared with retinoic acid and retinol
[6] = test system: human fetus; settings: oral, 0.5 to 2 mg/kg body weight per 24 hours; cited from earlier work

CC1=C(/C=C/C(C)=C/C=C/C(C)=C/C(=O)O)C(C)(C)CCC1 [Retinoic acid, all-trans retinoic acid, reference compound]
outcome of pregnancy / embryos ([1]; same large doses of retinoic acid, oral): did not carry the pregnancy to term--all the embryos died and were being resorbed | water solubility [2]: not water-soluble

CC1=C(/C=C/C(C)=C/C=C/C(C)=C/C(=O)O[C@@H]2O[C@H](C(=O)O)[C@@H](O)[C@H](O)[C@H]2O)C(C)(C)CCC1 [Retinoyl β-glucuronide, All-trans retinoyl β-glucuronide]
condition of pups ([1]; rat, in vivo, po): All the pups were normal and live | teratogenicity, observation in words ([1]; rat, in vivo, po): did not show any sign of teratogenicity | solubility in water [3]: soluble in water | product of incubation with β-glucuronidase [4]: generated retinoic acid | activity in the HL-60 systems assay [5]: activity similar to retinoic acid and retinol | cytotoxicity to HL-60 cells, less than all-trans retinoic acid ([5]; in vitro, vs all-trans retinoic acid, Gallup et al. and Zile et al.): 50%

CC1=C(/C=C/C(C)=C/C=C/C(C)=C\C(=O)O)C(C)(C)CCC1 [isotretinoin, 13-cis form of retinoic acid]
teratogenicity at typical clinical doses [6]: highly teratogenic

CC1=C(/C=C/C(C)=C/C=C/C(C)=C/COC2O[C@H](C(=O)O)[C@@H](O)[C@H](O)[C@H]2O)C(C)(C)CCC1 (some centres unmarked) [retinol glucuronide, reference compound]
activity in the HL-60 systems assay [5]: activity similar to retinoic acid and retinol

CC1=C(/C=C/C(C)=C/C=C/C(C)=C/CO)C(C)(C)CCC1 [retinol]
water solubility [2]: water-insoluble
